Measured values: publication PMC12406253, “Exploration of the Neuromodulatory Properties of Fyn and GSK-3β Kinases Exploiting 7‑Azaindole-Based Inhibitors” (Journal of Medicinal Chemistry, 2025)

How the values were obtained:
Type in all cases: biochemical
[1] = molecular target: T1, JAK2(h) (Homo sapiens, UniProt O60674); assay: Eurofins KinaseProfiler radiometric kinase assay; details: read-out: JAK2(h) % Residual activity
T1 construct: purchased Eurofins KinaseProfiler (Eurofins Cerep)

[2] = molecular target: FYNα (Homo sapiens, UniProt P06241); assay: FYNα kinase assay, LANCE Ultra TR-FRET; details: mean ± SD of at least three independent determinations; ATP near Km; read-out: Fyn IC50
[3] = molecular target: T2, Abl(h) (Homo sapiens, UniProt P00519); assay: Eurofins KinaseProfiler radiometric kinase assay; details: for Abl inhibition: 10 µM; for remaining activity at 10 µM: read-out: Abl(h) % Residual activity
T2 construct: purchased Eurofins KinaseProfiler (Eurofins Cerep)

[4] = molecular target: T3, p70S6K(h) (Homo sapiens, UniProt P23443); assay: Eurofins KinaseProfiler radiometric kinase assay; details: read-out: p70S6K(h) % Residual activity
T3 construct: purchased Eurofins KinaseProfiler (Eurofins Cerep)

[5] = molecular target: T4, KDR(h) (Homo sapiens, UniProt P35968); assay: Eurofins KinaseProfiler radiometric kinase assay; details: read-out: KDR(h) % Residual activity
T4 construct: purchased Eurofins KinaseProfiler (Eurofins Cerep)

[6] = molecular target: T5, MST1(h) (Homo sapiens, UniProt Q13043); assay: Eurofins KinaseProfiler radiometric kinase assay; details: read-out: MST1(h) % Residual activity
T5 construct: purchased Eurofins KinaseProfiler (Eurofins Cerep)

[7] = molecular target: T6, TAK1(h) (Homo sapiens, UniProt O43318); assay: Eurofins KinaseProfiler radiometric kinase assay; details: read-out: TAK1(h) % Residual activity
T6 construct: purchased Eurofins (Eurofins Cerep) KinaseProfiler

[8] = molecular target: T7, MSK2(h) (Homo sapiens, UniProt O75676); assay: Eurofins KinaseProfiler radiometric kinase assay; details: for remaining activity at 10 µM: read-out: MSK2(h) % Residual activity
T7 construct: purchased Eurofins KinaseProfiler (Eurofins Cerep)

[9] = molecular target: T8, PRAK(h) (Homo sapiens, UniProt Q8IW41); assay: Eurofins KinaseProfiler radiometric kinase assay; details: read-out: PRAK(h) % Residual activity
T8 construct: purchased Eurofins KinaseProfiler (Eurofins Cerep)

[10] = molecular target: T9, NEK2(h) (Homo sapiens, UniProt P51955); assay: Eurofins KinaseProfiler radiometric kinase assay; details: read-out: NEK2(h) % Residual activity
T9 construct: purchased Eurofins KinaseProfiler (Eurofins Cerep)

[11] = molecular target: T10, MLK1(h) (Homo sapiens, UniProt P80192); assay: Eurofins KinaseProfiler radiometric kinase assay; details: for remaining activity at 10 µM: read-out: MLK1(h) % Residual activity
T10 construct: purchased Eurofins KinaseProfiler (Eurofins Cerep)

[12] = molecular target: T11, ROCK-I(h) (Homo sapiens, UniProt Q13464); assay: Eurofins KinaseProfiler radiometric kinase assay; details: read-out: ROCK-I(h) % Residual activity
T11 construct: purchased Eurofins KinaseProfiler (Eurofins Cerep)

[13] = molecular target: T12, LOK(h) (Homo sapiens, UniProt O94804); assay: Eurofins KinaseProfiler radiometric kinase assay; details: for LOK inhibition: 10 µM; for remaining activity at 10 µM: read-out: LOK(h) % Residual activity
T12 construct: purchased Eurofins KinaseProfiler (Eurofins Cerep)

[14] = molecular target: T13, EphA5(h) (Homo sapiens, UniProt P54756); assay: Eurofins KinaseProfiler radiometric kinase assay; details: read-out: EphA5(h) % Residual activity
T13 construct: purchased Eurofins KinaseProfiler (Eurofins Cerep)

[15] = molecular target: T14, PDGFRβ(h) (Homo sapiens, UniProt P09619); assay: Eurofins KinaseProfiler radiometric kinase assay; details: read-out: PDGFRβ(h) % Residual activity
T14 construct: purchased Eurofins KinaseProfiler (Eurofins Cerep)

[16] = molecular target: T15, PI3 Kinase (p120γ)(h) (Homo sapiens, UniProt P48736); assay: Eurofins KinaseProfiler radiometric kinase assay; details: read-out: PI3 Kinase (p120γ)(h) % Residual activity
T15 construct: purchased Eurofins (Eurofins Cerep) KinaseProfiler

[17] = molecular target: T16, PKBα(h) (Homo sapiens, UniProt P31749); assay: Eurofins KinaseProfiler radiometric kinase assay; details: read-out: PKBα(h) % Residual activity
T16 construct: purchased Eurofins KinaseProfiler (Eurofins Cerep)

[18] = molecular target: T17, CK2α2(h) (Homo sapiens, UniProt P19784); assay: Eurofins KinaseProfiler radiometric kinase assay; details: read-out: CK2α2(h) % Residual activity
T17 construct: purchased Eurofins KinaseProfiler (Eurofins Cerep)

[19] = molecular target: T18, EphB4(h) (Homo sapiens, UniProt P54760); assay: Eurofins KinaseProfiler radiometric kinase assay; details: read-out: EphB4(h) % Residual activity
T18 construct: purchased Eurofins KinaseProfiler (Eurofins Cerep)

[20] = molecular target: T19, EGFR(h) (Homo sapiens, UniProt P00533); assay: Eurofins KinaseProfiler radiometric kinase assay; details: read-out: EGFR(h) % Residual activity
T19 construct: purchased Eurofins KinaseProfiler (Eurofins Cerep)

[21] = molecular target: T20, AMPKα1(h) (Homo sapiens, UniProt Q13131); assay: Eurofins KinaseProfiler radiometric kinase assay; details: read-out: AMPKα1(h) % Residual activity
T20 construct: purchased Eurofins KinaseProfiler (Eurofins Cerep)

[22] = molecular target: T21, Mnk2(h) (Homo sapiens, UniProt Q9HBH9); assay: Eurofins KinaseProfiler radiometric kinase assay; details: read-out: Mnk2(h) % Residual activity
T21 construct: purchased Eurofins KinaseProfiler (Eurofins Cerep)

[23] = molecular target: T22, CaMKI(h) (Homo sapiens, UniProt Q14012); assay: Eurofins KinaseProfiler radiometric kinase assay; details: read-out: CaMKI(h) % Residual activity
T22 construct: purchased Eurofins KinaseProfiler (Eurofins Cerep)

[24] = molecular target: T23, eEF-2K(h) (Homo sapiens, UniProt O00418); assay: Eurofins KinaseProfiler radiometric kinase assay; details: read-out: eEF-2K(h) % Residual activity
T23 construct: purchased Eurofins KinaseProfiler (Eurofins Cerep)

T7 sequence (O75676 whole entry): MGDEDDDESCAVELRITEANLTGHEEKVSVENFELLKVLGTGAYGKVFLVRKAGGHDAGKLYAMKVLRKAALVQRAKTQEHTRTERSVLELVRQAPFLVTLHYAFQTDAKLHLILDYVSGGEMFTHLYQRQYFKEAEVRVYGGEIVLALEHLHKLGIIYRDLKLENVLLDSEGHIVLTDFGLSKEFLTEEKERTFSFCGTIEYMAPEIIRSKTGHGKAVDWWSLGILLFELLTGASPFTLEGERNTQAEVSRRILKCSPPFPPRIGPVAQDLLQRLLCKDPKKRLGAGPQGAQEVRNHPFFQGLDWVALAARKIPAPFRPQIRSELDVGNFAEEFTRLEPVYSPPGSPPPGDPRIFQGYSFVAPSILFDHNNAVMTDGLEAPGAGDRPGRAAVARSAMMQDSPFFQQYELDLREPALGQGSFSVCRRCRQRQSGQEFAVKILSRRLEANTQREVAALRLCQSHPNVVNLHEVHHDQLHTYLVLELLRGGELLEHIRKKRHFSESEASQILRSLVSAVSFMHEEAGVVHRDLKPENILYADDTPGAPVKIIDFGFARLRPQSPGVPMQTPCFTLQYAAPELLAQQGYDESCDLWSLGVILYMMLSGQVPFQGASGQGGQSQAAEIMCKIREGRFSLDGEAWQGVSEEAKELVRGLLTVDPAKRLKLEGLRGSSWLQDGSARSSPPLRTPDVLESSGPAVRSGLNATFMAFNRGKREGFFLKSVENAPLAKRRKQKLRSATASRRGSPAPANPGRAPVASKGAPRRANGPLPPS
T2 sequence (P00519 whole entry): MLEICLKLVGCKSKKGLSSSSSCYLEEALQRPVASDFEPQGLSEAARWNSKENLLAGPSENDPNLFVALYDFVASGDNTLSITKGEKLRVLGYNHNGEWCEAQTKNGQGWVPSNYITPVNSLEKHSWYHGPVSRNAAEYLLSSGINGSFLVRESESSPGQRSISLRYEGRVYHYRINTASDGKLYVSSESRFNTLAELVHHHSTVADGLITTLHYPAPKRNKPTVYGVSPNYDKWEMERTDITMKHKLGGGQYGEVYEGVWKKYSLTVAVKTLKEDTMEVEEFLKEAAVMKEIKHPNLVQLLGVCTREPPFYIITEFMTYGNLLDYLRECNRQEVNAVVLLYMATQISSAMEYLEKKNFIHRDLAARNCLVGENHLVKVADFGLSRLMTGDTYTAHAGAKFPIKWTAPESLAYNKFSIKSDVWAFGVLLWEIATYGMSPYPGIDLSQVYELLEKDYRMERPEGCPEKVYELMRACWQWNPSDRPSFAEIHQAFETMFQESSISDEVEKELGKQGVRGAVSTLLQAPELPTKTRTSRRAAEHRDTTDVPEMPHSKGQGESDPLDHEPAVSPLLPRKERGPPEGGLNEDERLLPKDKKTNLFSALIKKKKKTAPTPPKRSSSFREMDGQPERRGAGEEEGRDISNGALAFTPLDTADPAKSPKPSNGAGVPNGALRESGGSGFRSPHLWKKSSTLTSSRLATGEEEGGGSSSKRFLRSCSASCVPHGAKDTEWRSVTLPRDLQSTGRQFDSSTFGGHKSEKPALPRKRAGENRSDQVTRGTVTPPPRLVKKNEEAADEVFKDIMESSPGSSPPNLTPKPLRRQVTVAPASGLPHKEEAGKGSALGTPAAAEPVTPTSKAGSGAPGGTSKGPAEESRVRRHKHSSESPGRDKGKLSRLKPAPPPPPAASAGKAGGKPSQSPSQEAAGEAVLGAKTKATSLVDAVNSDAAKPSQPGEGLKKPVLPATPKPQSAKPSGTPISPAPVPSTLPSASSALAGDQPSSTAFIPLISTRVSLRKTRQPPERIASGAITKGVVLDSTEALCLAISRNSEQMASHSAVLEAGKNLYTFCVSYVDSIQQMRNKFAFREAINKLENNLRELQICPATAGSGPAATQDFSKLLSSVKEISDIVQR
T12 sequence (O94804 whole entry): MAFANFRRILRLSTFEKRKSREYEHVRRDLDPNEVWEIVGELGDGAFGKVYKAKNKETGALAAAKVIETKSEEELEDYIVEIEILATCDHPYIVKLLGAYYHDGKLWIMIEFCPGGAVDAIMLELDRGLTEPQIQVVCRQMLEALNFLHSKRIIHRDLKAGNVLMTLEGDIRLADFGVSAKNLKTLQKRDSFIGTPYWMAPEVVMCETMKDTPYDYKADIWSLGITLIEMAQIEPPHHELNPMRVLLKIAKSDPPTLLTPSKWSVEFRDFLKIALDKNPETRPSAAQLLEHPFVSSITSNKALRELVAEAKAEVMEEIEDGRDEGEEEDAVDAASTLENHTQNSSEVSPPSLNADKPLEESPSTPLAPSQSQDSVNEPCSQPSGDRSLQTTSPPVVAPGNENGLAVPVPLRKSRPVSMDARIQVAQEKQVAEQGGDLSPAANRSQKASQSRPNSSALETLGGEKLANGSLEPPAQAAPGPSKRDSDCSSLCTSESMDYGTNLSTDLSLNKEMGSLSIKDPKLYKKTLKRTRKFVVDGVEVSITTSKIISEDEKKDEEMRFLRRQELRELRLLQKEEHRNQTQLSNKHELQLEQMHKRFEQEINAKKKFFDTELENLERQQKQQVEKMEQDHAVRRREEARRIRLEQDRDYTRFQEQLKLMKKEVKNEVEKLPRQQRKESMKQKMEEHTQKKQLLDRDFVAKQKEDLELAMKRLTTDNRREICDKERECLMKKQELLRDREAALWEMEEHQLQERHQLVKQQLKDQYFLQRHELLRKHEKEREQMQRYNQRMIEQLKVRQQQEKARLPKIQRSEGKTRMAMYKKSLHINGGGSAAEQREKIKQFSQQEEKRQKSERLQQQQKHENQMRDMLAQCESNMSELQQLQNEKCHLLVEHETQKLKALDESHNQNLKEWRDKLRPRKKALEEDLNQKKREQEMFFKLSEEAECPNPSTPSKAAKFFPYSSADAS
T10 sequence (P80192 whole entry): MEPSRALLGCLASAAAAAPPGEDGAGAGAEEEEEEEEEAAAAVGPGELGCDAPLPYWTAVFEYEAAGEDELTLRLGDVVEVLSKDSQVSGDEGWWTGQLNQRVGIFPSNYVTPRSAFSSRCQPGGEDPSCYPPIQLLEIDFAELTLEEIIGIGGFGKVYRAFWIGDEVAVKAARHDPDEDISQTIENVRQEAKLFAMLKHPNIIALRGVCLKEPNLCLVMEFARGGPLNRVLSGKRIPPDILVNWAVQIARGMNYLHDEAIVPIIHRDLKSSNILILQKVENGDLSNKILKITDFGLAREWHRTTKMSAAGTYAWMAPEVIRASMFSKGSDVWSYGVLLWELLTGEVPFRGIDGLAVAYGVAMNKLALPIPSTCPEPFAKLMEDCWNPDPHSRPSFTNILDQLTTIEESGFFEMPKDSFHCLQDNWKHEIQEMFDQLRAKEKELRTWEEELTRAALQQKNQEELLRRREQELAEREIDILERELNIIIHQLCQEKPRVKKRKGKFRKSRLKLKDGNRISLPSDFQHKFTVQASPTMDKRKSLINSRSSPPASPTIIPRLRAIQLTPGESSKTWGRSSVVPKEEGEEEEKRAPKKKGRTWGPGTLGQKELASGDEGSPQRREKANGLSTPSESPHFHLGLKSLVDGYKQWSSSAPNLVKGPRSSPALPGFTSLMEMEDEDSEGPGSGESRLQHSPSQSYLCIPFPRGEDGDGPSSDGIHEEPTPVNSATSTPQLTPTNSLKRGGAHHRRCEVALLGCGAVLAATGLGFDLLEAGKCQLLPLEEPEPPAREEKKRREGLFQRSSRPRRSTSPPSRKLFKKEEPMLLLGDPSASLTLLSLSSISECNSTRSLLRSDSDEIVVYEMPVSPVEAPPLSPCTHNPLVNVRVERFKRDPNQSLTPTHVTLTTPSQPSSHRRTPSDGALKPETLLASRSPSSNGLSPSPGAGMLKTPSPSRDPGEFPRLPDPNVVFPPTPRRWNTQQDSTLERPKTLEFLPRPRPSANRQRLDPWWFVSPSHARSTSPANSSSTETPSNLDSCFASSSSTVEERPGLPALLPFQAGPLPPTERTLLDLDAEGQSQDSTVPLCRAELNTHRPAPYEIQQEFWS
T13 sequence (P54756 25-1037): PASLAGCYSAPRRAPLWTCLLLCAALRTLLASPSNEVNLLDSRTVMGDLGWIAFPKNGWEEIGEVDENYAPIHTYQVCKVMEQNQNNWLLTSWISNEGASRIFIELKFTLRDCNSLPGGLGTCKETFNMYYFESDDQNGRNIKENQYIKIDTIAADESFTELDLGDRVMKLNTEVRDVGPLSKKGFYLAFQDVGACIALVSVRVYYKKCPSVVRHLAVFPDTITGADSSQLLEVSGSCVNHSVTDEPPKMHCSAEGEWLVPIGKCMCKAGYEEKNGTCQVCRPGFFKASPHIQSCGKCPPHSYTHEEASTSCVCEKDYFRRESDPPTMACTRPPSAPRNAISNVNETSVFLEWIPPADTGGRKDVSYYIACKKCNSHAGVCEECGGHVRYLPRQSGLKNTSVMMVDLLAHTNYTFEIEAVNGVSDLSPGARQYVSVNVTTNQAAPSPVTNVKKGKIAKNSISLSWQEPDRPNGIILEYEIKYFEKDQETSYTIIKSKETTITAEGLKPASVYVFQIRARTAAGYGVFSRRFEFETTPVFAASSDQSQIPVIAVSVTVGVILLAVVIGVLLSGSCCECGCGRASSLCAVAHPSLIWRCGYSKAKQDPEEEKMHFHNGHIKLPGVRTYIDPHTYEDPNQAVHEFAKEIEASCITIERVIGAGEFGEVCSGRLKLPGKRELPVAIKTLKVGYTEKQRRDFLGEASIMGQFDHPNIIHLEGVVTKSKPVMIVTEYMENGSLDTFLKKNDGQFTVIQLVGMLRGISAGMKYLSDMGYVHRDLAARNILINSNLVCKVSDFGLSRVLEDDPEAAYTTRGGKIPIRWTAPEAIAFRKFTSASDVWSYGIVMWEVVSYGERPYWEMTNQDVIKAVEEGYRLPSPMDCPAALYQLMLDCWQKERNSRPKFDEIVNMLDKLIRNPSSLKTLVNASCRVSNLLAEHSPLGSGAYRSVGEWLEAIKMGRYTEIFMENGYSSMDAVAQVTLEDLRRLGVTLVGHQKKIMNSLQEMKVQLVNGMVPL

| remaining activity at 10 µM [1] [%] | IC50 [2] [nM] | Abl inhibition [3] | remaining activity at 10 µM [3] [%] | remaining activity at 10 µM [4] [%] | remaining activity at 10 µM [5] [%] | remaining activity at 10 µM [6] [%] | remaining activity at 10 µM [7] [%] | remaining activity at 10 µM [8] [%] | remaining activity at 10 µM [9] [%] | remaining activity at 10 µM [10] [%] | remaining activity at 10 µM [11] [%] | remaining activity at 10 µM [12] [%] | LOK inhibition [13] | remaining activity at 10 µM [13] [%] | remaining activity at 10 µM [14] [%] | remaining activity at 10 µM [15] [%] | remaining activity at 10 µM [16] [%] | remaining activity at 10 µM [17] [%] | remaining activity at 10 µM [18] [%] | SMILES | other results |
| --- | --- | --- | --- | --- | --- | --- | --- | --- | --- | --- | --- | --- | --- | --- | --- | --- | --- | --- | --- | --- | --- |
| 26 | 50 ± 10 | completely inhibited | 8 | 50 | 16 | 16 | 49 | 59 | 64 | 56 | 8 | 93 | completely inhibited | 4 | 93 | 95 | 80 | 104 | 83 | Br.Cc1sc(NCc2ccccc2)nc1-c1c[nH]c2ncc(Br)cc12 [Compound 41, N-Benzyl-4-(5-bromo-1H-pyrrolo[2,3-b]pyridin-3-yl)-5-methylthiazol-2-amine Hydrobromide] | inhibition at 10 µM [11]: > 90%; remaining activity at 10 µM [19]: 109%; remaining activity at 10 µM [20]: 50%; remaining activity at 10 µM [21]: 54%; remaining activity at 10 µM [22]: 17%; remaining activity at 10 µM [23]: 89%; remaining activity at 10 µM [24]: 121% |
| 46 | 44 ± 3 | completely inhibited | 6 | 14 | 15 | 14 | 30 | 1 | 97 | 84 | 12 | 76 | completely inhibited | 4 | 103 | 93 | 94 | 103 | 100 | Br.Cc1sc(NCc2ccnc(Cl)c2)nc1-c1c[nH]c2ncccc12 [Compound 43, N-((2-Chloropyridin-4-yl)methyl)-5-methyl-4-(1H-pyrrolo[2,3-b]pyridin-3-yl)thiazol-2-amine Hydrobromide] | inhibition at 10 µM [8]: > 90%; remaining activity at 10 µM [19]: 108%; remaining activity at 10 µM [20]: 86%; remaining activity at 10 µM [21]: 60%; remaining activity at 10 µM [22]: 27%; remaining activity at 10 µM [23]: 80%; remaining activity at 10 µM [24]: 108% |
